Results on five molecules are retold here after patent US20140213632A1, “HCV Combination Therapy” (Stella Aps, priority 2011, published 2014).

Read-outs that look alike come from different tables or passages of the source.

In data set [1] the test system is HCV genotype Ib replicon in Huh-luc/neo-ET cells. The class given is cell-based, HCV genotype 1b. The conditions noted are these: for interaction: SPC3649 with 2-methyl cytidine.
Protocol: The anti-viral efficacy and cellular toxicity of non-transfected antimiR oligonucleotide in combination with approved and experimental anti-HCV therapeutics (e.g. BMS-790052) (or other NS5A inhibitors), was determined in the reporter cell line Huh-luc/neo-ET. This cell line harbors the persistently replicating I389luc-ubi-neo/NS3-37ET replicon containing the firefly luciferase gene-ubiquitin-neomycin phosphotransferase fusion protein and EMCV IRES driven NS3-5B HCV coding sequences containing the ET tissue culture adaptive mutations (E1202G, T1208I, and K1846T). Eight dilutions of non-transfected antimiR oligonucleotide (bracketing the calculated EC50) were evaluated in triplicate on duplicate sets of three plates with five dilutions of each of the control compounds (bracketing the calculated EC50). One set of plates was used for the determination of cellular toxicity and the other set of plates was used for the determination of anti-viral efficacy. The efficacy and toxicity results was quantified with firefly luciferase activity and XTT dye reduction, respectively, and the results of the assay is imported into the Prichard and Shipman MacSynergy II software program. The MacSynergy II analysis includes calculation of the dose response of the two (or more) compounds when used alone followed by calculation of the expected additive level of antiviral inhibition or toxicity when the compounds are used together based on the individual dose response curves. The expected level of activity at each of the concentration data points was compared to the experimentally determined antiviral activity in the assay. The expected activity was subtracted from the realized activity, yielding a negative, zero or positive value. […]
The combination antiviral assays were performed using the reporter cell line Huh-luc/neo-ET, which contains a bicistronic HCV genotype Ib replicon. Combination data were analyzed using MacSynergy II software at the 95%, confidence interval. […]
Another data set has as its system Huh-luc/neo-ET cells. Here is the method: Eight dilutions of non-transfected antimiR oligonucleotide (bracketing the calculated EC50) were evaluated in triplicate on duplicate sets of three plates with five dilutions of each of the control compounds (bracketing the calculated EC50). One set of plates was used for the determination of cellular toxicity and the other set of plates was used for the determination of anti-viral efficacy. The efficacy and toxicity results was quantified with firefly luciferase activity and XTT dye reduction, respectively, and the results of the assay is imported into the Prichard and Shipman MacSynergy II software program. […] The expected level of activity at each of the concentration data points was compared to the experimentally determined antiviral activity in the assay. The expected activity was subtracted from the realized activity, yielding a negative, zero or positive value. […]
The cells were treated with trypsin and enumerated by staining with trypan blue and seeded into 96-well tissue culture plates at a cell culture density 5.0×10^3 cells per well in a volume of 85 f.IL per well and incubated at […] in an environment of 5% CO2 for 24 hours. […] Following incubation, the plates were assessed for anti-HCV activity by measurement of luciferase reporter activity and cellular cytotoxicity by XTT staining.

The test system of data set [2] is HCV genotype 1b replicon NS5B S282T. The class given is cell-based. To be noted: EC50 mutant / EC50 wild-type; mean of two experiments (individual values); 72 hours. The procedure:
(§1) The objective of this study was to evaluate the in vitro antiviral activity of miravirsen (SPC3649) against wild-type HCV genotype Ib replicon and NS3, NS5A and NS5B drug-resistant HCV genotype 1 b replicons in transient transfection assays utilizing Huh 7 cells. Method: The in vitro antiviral of miravirsen was evaluated against wild-type HCV genotype 1 b replicon and HCV genotype 1 b replicons constructed to contain key amino acid substitutions in NS3 protease (A156T, R155K), NS5B polymerase (S282T, M423I) and NS5A protein (Y93H) in transient transfection assays utilizing Huh 7 cells. […] Huh 7 cells were transfected with either the wild-type or the mutant RNA constructs by electroporation. Luciferase activity was measured 72 hours after compound treatment and EC50 values determined from dose-response curves. Fold resistance was expressed as the ratio of the EC50 for mutant HCV replicon to the EC50 for wild-type HCV replicon.
(§2) The in vitro antiviral of miravirsen was evaluated against wild-type HCV genotype Ib replicon and HCV replicons constructed to contain key amino acid substitutions in NS3 protease (A156T, R155K), NS5B polymerase (S282T, M423I) and NS5A protein (Y93H) in transient transfection assays. […] Huh 7 cells were transfected with either the wild type or the mutant RNA constructs by electroporation. Luciferase activity was measured 72 hours after compound treatment and EC50 values determined from dose-response curves. Fold resistance was expressed as the ratio of the EC50 for mutant HCV replicon to the EC50 for wild-type HCV replicon. Results are expressed as the mean of two individual experiments. In an initial set of experiments, the standard protocol was modified by adding compounds 24 hours after electroporation. […] In a third experiment cells were pretreated with miravirsen for 24 hours before electroporation with wild-type RNA constructs to determine if preincubation could result in increased miravirsen antiviral activity.

The test system of data set [3] is HCV genotype 1b replicon NS5A Y93H. The class given is cell-based. The conditions noted are these: EC50 mutant / EC50 wild-type; mean of two experiments (individual values); 72 hours. Here is the method:
as §1, §2

For data set [4], the system named is HCV genotype 1b replicon NS5B M423I. The class given is cell-based. The conditions noted are these: EC50 mutant / EC50 wild-type; mean of two experiments (individual values); 72 hours. The procedure:
as §1, §2

Data set [5] relates to HCV genotype 1b replicon NS3 R155K. Type of data set: cell-based. To be noted: EC50 mutant / EC50 wild-type; mean of two experiments (individual values); 72 hours. The procedure: as §1, §2
In data set [6] the test system is HCV genotype 1b replicon NS3 A156T. The class given is cell-based. To be noted: EC50 mutant / EC50 wild-type; mean of two experiments (individual values); 72 hours. Here is the method:
as §1, §2

On to “5′-Ts·^oc^·sAs·^otsa^·s^mCs·^oTs·^oa^·stsAs·^otsGs·^oa^·s^mCs·^oA·^o-3′ [SPC4729]”, for which the “overall interaction (antiviral)” value in data set [1] (ribavirin plus the named compound) was “antagonistic”. Further, the “Cytotoxicity, Synergy vol” value with Huh-luc/neo-ET cells is 0.00/−44.3 μM^2%. Also, the “Cytotoxicity, Antag Vol” value in the data set on Huh-luc/neo-ET cells (Ribavirin plus the named compound, 95% confidence level) is recorded as 0.00/−44.3 μM^2%.

For “5′-^mCs^ocsAs^otstsGs^oTs^ocsas^mCs^oas^mCs^ots^mCs^omCo-3′ (CCATTGTCACACTCC; all phosphorothioate, sugars by position and methylation of C not given here; further chemistry not fully specified) [miravirsen]”, the “Fold Resistance NS5B S282T” value in data set [2] is reported as 1.9 (2.6, 1.1) fold. For the same molecule, the “Fold Resistance NS5A Y93H” value in data set [3] is given as 0.9 (0.8, 0.9) fold. Further, the “Fold Resistance NS5B M423I” value in data set [4] is listed as 1.7 (2.3, 1.0) fold. Also, the “Fold Resistance NS3 R155K” value in data set [5] is 1.2 (1.9, 0.4) fold. The “Fold Resistance NS3 A156T” value in data set [6] is recorded as 1.0 (1.4, 0.5) fold.

As to `C[C@@]1(O)[C@H](O)[C@@H](CO)O[C@H]1n1ccc(N)nc1=O` [2′-C-Methylcytidine], the interaction result in data set [1] (third replicate) is listed as “slightly antagonistic interaction”; in data set [1] (two of the assay replicates) it was “positive interactions”.

Regarding `CCC[C@H](NC(=O)[C@@H]1[C@H]2CCC[C@H]2CN1C(=O)[C@@H](NC(=O)[C@@H](NC(=O)c1cnccn1)C1CCCCC1)C(C)(C)C)C(=O)C(=O)NC1CC1` [Telaprevir, (1S,3aR,6aS)-2-[(2S)-2-[[(2S)-2-Cyclohexyl-2-(pyrazine-2-carbonylamino)acetyl]amino]-3,3-dimethylbutanoyl]-N-[(3S)-1-(cyclopropylamino)-1,2-dioxohexan-3-yl]-3,3a,4,5,6,6a-hexahydro-1H-cyclopenta[c]pyrrole-1-carboxamide], in data set [5], the “Fold Resistance NS3 R155K” value is given as 4.6 (5.0, 4.2) fold.

Take `CC(C)(C)C#Cc1cc(N(C(=O)[C@H]2CC[C@H](C)CC2)[C@H]2CC[C@H](O)CC2)c(C(=O)O)s1` [VX-222]: the “Fold Resistance NS5B M423I” value in data set [4] is on record as 4.4 (3.6, 5.2) fold.
